This is an account of results in US9695481B2, “Polynucleotides comprising a reporter sequence operatively linked to a regulatory element” (UNIVERSITEIT LEIDEN, priority 2010, dated 2017).

Assay [1] concerns Bscl2-GFP mES reporter cells. In words: Bscl2-GFP genotoxicity reporter. As to conditions: 10 uM CisPt or 1.5 uM Aph, 24 h, flow cytometry.
Assay [2] relates to ATM and ATR signaling pathways (phospho-Kap1, phospho-Chk1, phospho-p53). It is filed as cell-based, mouse. As to conditions: Western blot, 24 h. Here is the method: Mouse ES cells were propagated on irradiated primary mouse embryonic fibroblasts as feeders according to established protocols. […] For analysis of compounds that require metabolic activation, cells were exposed for 3 h in the presence of 1% S9 rat liver extract in 3.2 mM KCl, 0.8 mM MgCl2, 0.5 mM glucose-6-phosphate and 0.4 mM NADP.
Activation of the ATM and ATR signaling pathways in response to CisPt and Aph was determined by Western blot analysis. […] Proteins were transferred to PVDF membrane (Millipore) and detected using antibodies against phospho-Kap1 (Bethyl laboratories), phospho-Chk1 (Bethyl laboratories), phospho-p53 (Cell signaling) or Hprt (Santa Cruz) as protein loading control. Proteins were visualized using enhanced chemoluminescence (ECL).

With `O=c1cc(-c2cccc3c2Sc2ccccc2S3)oc(N2CCOCC2)c1` [ku55933], the “effect on Bscl2-GFP reporter activation by CisPt or Aph” value in assay [1] is on record as “unaffected”. Also, the “effect on phosphorylation of Kap1, Chk1 and p53 in response to CisPt and Aph” value in assay [2] is “prevented phosphorylation of Kap1 and p53”.
As for `COc1cc2c(c(OC)c1OC)-c1c(cc3c(c1OC)OCO3)CC(C)C(C)C2` (stereo not shown) [schisandrin B], the “effect on Bscl2-GFP reporter activation by CisPt or Aph” value in assay [1] was “almost completely be repressed”. In assay [2], the “effect on phosphorylation of Kap1, Chk1 and p53 in response to CisPt and Aph” value was “diminished Chk1 and p53 phosphorylation”.
